Entries after “also recorded” stand apart in the source; their conditions may differ. Peptide text beside a SMILES is read from it.
Assays:
[1] = test system: SK-MES-1 cells; experiment: Specific binding (blocking with unlabeled peptide) on SK-MES-1 cells; set-up: species or system human
Description: (§1) The in vitro receptor binding of the^ 99mTc-labeled peptide was evaluated using SK-MES-1 a human lung squamous cell carcinoma, SKOV-3 human ovarian carcinoma, and A-549 human lung adenocarcinoma epithelial and MCF-7 human breast cancer cell lines. All cell lines were kept at 37 °C in a 5% CO2 incubator and were maintained in Dulbecco’s DMEM-high glucose supplemented with 10% FBS. Cells were plated in 24-well plates at a density of 4×10^5 cells/well in 1 ml of complete medium and incubated for 24 hr to allow in cells to settle. Following a wash with cold serum-free media or PBS, 40 nM radiolabeled peptides in the full medium were given to the cells, which were then incubated at 37 °C for 2 hr. Finally, cells in culture plates were trypsinized and released, and radioactivity in the cells was measured. To determine specific versus nonspecific binding, SK-MES-1 cells were seeded into 12-well plates at a density of 5×10^5 cells/well and incubated with unlabeled peptides at a concentration 500-fold higher than the labeled peptide for 20 min at 37 °C, followed by the addition of the radiolabeled peptide to the wells. These cells were incubated for 2 hr at 37 °C in a humidified incubator.

[2] = test system: SK-MES-1, A-549, SKOV-3 and MCF-7 cells; experiment: In vitro receptor binding of radiolabeled peptides on four cell lines; set-up: species or system human; conditions: 2 hr at 37 °C
Description: as §1

Compound: CC(C)C[C@H](NC(=O)[C@H](CO)NC(=O)[C@H](CCCNC(=N)N)NC(=O)[C@H](CO)NC(=O)[C@H](CO)NC(=O)[C@H](CO)NC(=O)c1ccc(NN)nc1)C(=O)N[C@@H](Cc1c[nH]c2ccccc12)C(=O)N[C@@H](CO)C(=O)N[C@@H](CC(=O)O)C(=O)N[C@@H](Cc1ccccc1)C(=O)N[C@@H](Cc1ccc(O)cc1)C(=O)N[C@@H](C)C(=O)N[C@@H](CO)C(=O)N[C@@H](C)C(=O)N[C@@H](CO)C(=O)N[C@@H](CCCNC(=N)N)C(=O)NCC(=O)N1CCC[C@H]1C(=O)O [Peptide 1, (^99mTc)Tc-HYNIC-(Ser)3-J18 with tricine, metal not drawn] (HELM PEPTIDE1{[NNc1ccc(C(=O)[*:2])cn1].S.S.S.R.S.L.W.S.D.F.Y.A.S.A.S.R.G.P}$$$$V2.0; C-terminus assumed)
- reduction of binding by pre-saturation with unlabeled J18 peptide ([1]; 500-fold unlabeled peptide 20 min at 37 °C, then radiolabeled peptide 2 hr at 37 °C, listed as 99mTc-peptide 1): ~11.5 fold
- specific binding ([1]; abstract, listed as 99mTc-peptide 1): 11.5 fold
- specific binding to SK-MES-1, in words ([1]; listed as 99mTc-J18 peptide with tricine co-ligand): higher specific binding to SK-MES-1 in comparison with tricine/EDDA coligand
- specific binding to SK-MES-1, in words ([1]; listed as 99mTc-peptide 1): high specific binding; also recorded: high specificity
- cellular affinity, in words ([2]; 40 nM radiolabeled peptide): strongest cellular affinity for the SK-MES-1 cell line
- receptor binding affinity (as CPM/Cells value), tricine vs tricine/EDDA as coligand ([2]; higher than tricine/EDDA as coligand, 40 nM): 2.5 fold
